{
  "source": "patent US20080109040A1",
  "about": "“METHOD OF TREATING ARRHYTHMIAS” (priority 2002, published 2008)",
  "key": {"[1]": {"molecular_target": "T1, slowly activating component of the delayed rectifier current (IKs) (Canis lupus familiaris, UniProt A0A8I3N8W8)", "T1 construct": "Myocytes were isolated by enzymatic dissociation from a wedge-shaped section of the left ventricular free wall; endogenous in cells; host or cells: isolated canine left ventricular myocytes", "T1 sequence (A0A8I3N8W8 1-676)": "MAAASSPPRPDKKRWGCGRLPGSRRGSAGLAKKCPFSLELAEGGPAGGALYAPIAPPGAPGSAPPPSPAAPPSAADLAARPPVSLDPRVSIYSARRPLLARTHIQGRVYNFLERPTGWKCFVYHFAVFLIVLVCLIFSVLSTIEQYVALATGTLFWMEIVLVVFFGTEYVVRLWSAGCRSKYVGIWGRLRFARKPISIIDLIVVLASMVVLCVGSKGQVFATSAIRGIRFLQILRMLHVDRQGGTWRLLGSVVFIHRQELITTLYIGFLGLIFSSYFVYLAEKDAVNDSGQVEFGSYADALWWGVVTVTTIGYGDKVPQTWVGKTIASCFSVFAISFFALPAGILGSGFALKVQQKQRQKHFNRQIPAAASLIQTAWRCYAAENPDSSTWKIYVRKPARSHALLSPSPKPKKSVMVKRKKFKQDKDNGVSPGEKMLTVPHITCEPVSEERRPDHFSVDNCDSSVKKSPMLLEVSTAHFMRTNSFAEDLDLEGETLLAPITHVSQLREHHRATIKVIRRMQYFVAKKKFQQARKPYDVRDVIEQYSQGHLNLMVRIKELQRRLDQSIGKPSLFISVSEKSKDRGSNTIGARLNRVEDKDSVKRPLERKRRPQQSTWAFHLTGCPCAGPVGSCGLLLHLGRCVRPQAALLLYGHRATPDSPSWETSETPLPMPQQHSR", "assay": "Whole cell voltage clamp of IKs tail current in isolated canine left ventricular myocytes", "format": "cell-based", "experimental": "Myocytes were isolated by enzymatic dissociation from a wedge-shaped section of the left ventricular free wall supplied by the left circumflex coronary artery. Cells from the epicardial and midmyocardial regions of the left ventricle were used in this study.\nInward rectifier potassium current (IK), slow delayed rectifier potassium current (IKs), and rapid delayed rectifier potassium current (IKr) were recorded at 37° C. using conventional whole cell voltage clamp configuration.\nIK1 was measured using an external solution containing 3 μM ouabain and 5 μM nifedipine to block the sodium-potassium pump and L-type calcium current (ICa,L), respectively. […] 5 μM nifedipine was present in the external solution when IKr was being recorded.\nIsolated myocytes were placed in a temperature controlled 0.5 ml chamber (Medical Systems, Greenvale, N.Y.) on the stage of an inverted microscope and superfused at a rate of 2 ml/min. An eight-barrel quartz micromanifold (ALA Scientific Instruments Inc., Westbury, N.Y.) placed 100 μm from the cell was used to apply ranolazine at concentrations of (in μM): 0.1, 0.5, 1.0, 5.0, 10 and 100.0. An Axopatch 1D amplifier (Axon Instruments, Foster City, Calif.) was operated in voltage clamp mode to record currents. […]"}, "[2]": {"molecular_target": "T2, L-type calcium current (ICa) (Canis lupus familiaris, UniProt A0A8I3QY31)", "T2 construct": "Single myocytes were obtained by enzymatic dissociation from a wedge-shaped section of the ventricular free wall; endogenous in cells; host or cells: isolated canine left ventricular myocytes", "T2 sequence (A0A8I3QY31 1-2188)": "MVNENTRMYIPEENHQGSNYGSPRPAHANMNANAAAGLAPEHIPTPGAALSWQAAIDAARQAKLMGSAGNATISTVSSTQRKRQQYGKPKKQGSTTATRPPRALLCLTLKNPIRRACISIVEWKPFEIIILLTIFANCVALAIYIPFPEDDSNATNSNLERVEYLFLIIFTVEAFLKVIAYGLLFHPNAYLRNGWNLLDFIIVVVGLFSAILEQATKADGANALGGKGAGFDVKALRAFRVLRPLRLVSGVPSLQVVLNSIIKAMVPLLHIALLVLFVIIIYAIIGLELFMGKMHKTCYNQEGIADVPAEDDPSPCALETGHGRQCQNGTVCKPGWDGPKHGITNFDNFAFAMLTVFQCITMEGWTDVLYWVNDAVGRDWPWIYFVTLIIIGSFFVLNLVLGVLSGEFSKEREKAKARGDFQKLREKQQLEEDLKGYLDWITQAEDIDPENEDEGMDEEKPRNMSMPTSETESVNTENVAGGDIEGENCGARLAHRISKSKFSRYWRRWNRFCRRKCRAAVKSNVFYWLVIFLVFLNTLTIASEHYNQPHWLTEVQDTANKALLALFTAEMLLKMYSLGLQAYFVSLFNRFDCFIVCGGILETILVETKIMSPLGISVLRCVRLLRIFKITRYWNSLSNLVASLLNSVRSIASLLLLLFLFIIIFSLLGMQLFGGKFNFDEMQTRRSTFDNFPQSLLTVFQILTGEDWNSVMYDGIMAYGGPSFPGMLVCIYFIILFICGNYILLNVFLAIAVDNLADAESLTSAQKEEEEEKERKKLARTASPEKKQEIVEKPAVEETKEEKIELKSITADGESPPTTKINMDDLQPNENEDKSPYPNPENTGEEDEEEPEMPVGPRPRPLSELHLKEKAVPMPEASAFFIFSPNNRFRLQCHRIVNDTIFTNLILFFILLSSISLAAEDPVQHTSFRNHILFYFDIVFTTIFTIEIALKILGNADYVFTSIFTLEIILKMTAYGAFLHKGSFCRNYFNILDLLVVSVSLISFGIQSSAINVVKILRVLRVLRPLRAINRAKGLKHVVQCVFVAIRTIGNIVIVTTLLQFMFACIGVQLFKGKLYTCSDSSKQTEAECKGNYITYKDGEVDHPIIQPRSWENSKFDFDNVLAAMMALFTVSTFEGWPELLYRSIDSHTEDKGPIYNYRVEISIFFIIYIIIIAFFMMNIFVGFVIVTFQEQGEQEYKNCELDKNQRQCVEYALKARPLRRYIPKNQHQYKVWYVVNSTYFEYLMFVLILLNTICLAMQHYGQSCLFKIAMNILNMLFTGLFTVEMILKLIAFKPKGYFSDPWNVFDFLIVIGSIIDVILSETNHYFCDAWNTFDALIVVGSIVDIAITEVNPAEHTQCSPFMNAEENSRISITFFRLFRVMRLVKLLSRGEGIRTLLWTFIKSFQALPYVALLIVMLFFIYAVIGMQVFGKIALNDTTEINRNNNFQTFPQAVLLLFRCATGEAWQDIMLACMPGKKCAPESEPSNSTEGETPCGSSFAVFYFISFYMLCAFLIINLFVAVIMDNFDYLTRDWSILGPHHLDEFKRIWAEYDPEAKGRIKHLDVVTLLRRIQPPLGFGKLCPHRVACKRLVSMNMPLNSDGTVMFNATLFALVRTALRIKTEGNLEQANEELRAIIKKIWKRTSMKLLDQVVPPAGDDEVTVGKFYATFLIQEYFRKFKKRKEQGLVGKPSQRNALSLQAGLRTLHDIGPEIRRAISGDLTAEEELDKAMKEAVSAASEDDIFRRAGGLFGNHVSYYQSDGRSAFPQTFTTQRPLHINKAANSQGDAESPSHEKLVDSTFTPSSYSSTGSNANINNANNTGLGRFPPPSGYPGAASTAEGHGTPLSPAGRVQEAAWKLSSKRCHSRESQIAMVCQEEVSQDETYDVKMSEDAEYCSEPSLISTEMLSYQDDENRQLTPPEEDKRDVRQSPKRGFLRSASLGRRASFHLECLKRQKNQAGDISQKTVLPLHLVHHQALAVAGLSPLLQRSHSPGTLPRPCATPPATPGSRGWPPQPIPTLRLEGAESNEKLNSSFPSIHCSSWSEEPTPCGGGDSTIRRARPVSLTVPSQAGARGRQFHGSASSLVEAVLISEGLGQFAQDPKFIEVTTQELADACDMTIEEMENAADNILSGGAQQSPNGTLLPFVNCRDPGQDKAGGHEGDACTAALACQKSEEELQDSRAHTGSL", "assay": "L-type calcium current voltage clamp in isolated canine left ventricular myocytes", "format": "cell-based", "settings": "read-out: Concentration at which ranolazine blocks the calcium channel"}, "[3]": {"system": "guinea pig isolated heart", "assay": "K-H buffer perfused guinea pig isolated heart: MAP duration, EADs and VT", "settings": "for Effect on ATXII-induced EADs and MAP prolongation: ranolazine 10 μM; for Decrease of MAPS90: ranolazine 10 μmol/L; for Effect on ATXII-induced EADs and VT: ranolazine 5, 10 and 30 μM in the presence of ATXII", "from_the_text": "To study the effect of ranolazine on ATXII induced MAP (monophasic action potential) duration prolongation, EADs and ventricular tachyarrhythmia (VT), the K—H buffer perfused guinea pig isolated heart model was used.\nMultiple EADs and sustained depolarizations were frequently observed."}},
  "note": "Entries after “also recorded” stand apart in the source; their conditions may differ.",
  "data": [
    {"smiles": "COc1ccccc1OCC(O)CN1CCN(CC(=O)Nc2c(C)cccc2C)CC1", "note": "(racemic) [ranolazine, N-(2,6-dimethylphenyl)-4-[2-hydroxy-3-(2-methoxyphenoxy)propyl]-1-piperazineacetamide]", "values": [
      {"measurement": "Block of IKs tail current", "setting": "[1]; ranolazine 100 μM, reversed on washout", "value": "largely eliminated the tail current; also recorded: almost completely blocked"},
      {"measurement": "IC50", "setting": "[1]; read-out: IC50 for inhibition of IKs tail current", "value": 13.4, "unit": "µM"},
      {"measurement": "IC50", "setting": "[2]", "value": 296, "unit": "µM"},
      {"measurement": "Effect on ATXII-induced EADs and MAP prolongation", "setting": "[3]; ATXII 20 nM", "value": "reversed"},
      {"measurement": "Effect on ATXII-induced EADs and MAP prolongation", "setting": "[3]; ATXII 20 nM, listed as Ranolazine", "value": "reduced or effectively abolished"},
      {"measurement": "Decrease of MAPS90", "setting": "[3]; ATX-II plus 293B", "value": "8.3±0.1", "unit": "%"},
      {"measurement": "Decrease of MAPS90", "setting": "[3]; ATX-II plus E-4031", "value": "24.5±0.1", "unit": "%"},
      {"measurement": "Effect on ATXII-induced VT", "setting": "[3]; ranolazine 30 μM, ATXII 20 nM", "value": "reduced or effectively abolished"},
      {"measurement": "Effect on ATXII-induced EADs and VT", "setting": "[3]", "value": "VTs were terminated"},
      {"measurement": "Effect on ATXII-induced EADs and VT", "setting": "[3]; listed as Ranolazine", "value": "significantly suppressed EADs and VT"}
    ]}
  ]
}
